Assay results taken from paper PMC6128881, “Novel insight into the reaction of nitro, nitroso and hydroxylamino benzothiazinones and of benzoxacinones with Mycobacterium tuberculosis DprE1” (Scientific Reports, 2018).
≈ marks a conversion by molar mass, not a printed value. Read-outs that look alike come from different tables or passages of the source.

Columns and labels:
[1] = type: physicochemical; conditions: pH 7.4
Protocol: Solubility of compounds was measured by Chemi-Luminescent Nitrogen Detection (CLND)[32]. […] of 10 mM DMSO stock solutions of compounds were diluted to […] with phosphate buffered saline (PBS), pH 7.4, equilibrated for 1 hour at room temperature and filtered through Millipore Multiscreen HTS-PCF filter plates (MSSL BPC) prior to analysis by CLND.

[2] = system: M. tuberculosis H37Rv; assay: Minimal inhibitory concentration, M. tuberculosis H37Rv; type: cell-based, Mycobacterium tuberculosis; conditions: for MIC Mtb-H37Rv / MIC / Inhibition of Mtb-H37Rv (MIC): n = 3; for MIC: read-out: MIC Mtb-H37Rv; for fold higher Mtb MIC of BOZ relative to BTZ counterpart: 5 vs 9, 10 vs PBTZ169
Protocol: MIC values for M. tuberculosis H37Rv and M. vaccae […] were determined as described previously[33],[34].

[3] = molecular target: T1, Mtb-DprE1 (Mycobacterium tuberculosis, UniProt P9WJF1); assay: biochemical; type: biochemical; conditions: for kinact/Ki: second order rate constant of inactivation, 150 nM Mtb-DprE1, 1 mM FPR, up to 100 min; for fold lower kinact/Ki of BOZ than the BTZ counterpart: 4 vs 7, 3 vs 6, 5 vs 9; for dependence of kobs on inhibitor concentration: inhibitor 10 nM to 100 µM; for fold increase in kinact/Ki as compared to 7: relative to 7
T1 construct: made in house; host or cells: E. coli

[4] = system: M. vaccae 10670; assay: Minimal inhibitory concentration, M. vaccae; type: cell-based; conditions: n = 1
[5] = molecular target: T1, Mtb-DprE1; assay: Intact protein mass spectrometry of Mtb-DprE1 after incubation with inhibitor; type: binding; conditions: for mass increase of Mtb-DprE1 (covalent adduct): incubated in the presence of FPR and FAD, LC-MS; for extent of modification of Mtb-DprE1: 20 μM FAD
[6] = system: M. smegmatis; assay: MIC against M. smegmatis (literature); type: cell-based; conditions: MIC ref 4, IC50 ref 9
[7] = system: M. smegmatis DprE1; set-up: method as in PMID 22956199; conditions: read-out: M. smegmatis DprE1 enzymatic IC50; cited from earlier work
[8] = IC50, final value of the decrease during the first 100 min of reaction, 100 min of reaction
[9] = IC50, starting value of the decrease during the first 100 min of reaction, early reaction time
[10] = Mycobacterium tuberculosis, H37RV

T1 sequence (P9WJF1 whole entry): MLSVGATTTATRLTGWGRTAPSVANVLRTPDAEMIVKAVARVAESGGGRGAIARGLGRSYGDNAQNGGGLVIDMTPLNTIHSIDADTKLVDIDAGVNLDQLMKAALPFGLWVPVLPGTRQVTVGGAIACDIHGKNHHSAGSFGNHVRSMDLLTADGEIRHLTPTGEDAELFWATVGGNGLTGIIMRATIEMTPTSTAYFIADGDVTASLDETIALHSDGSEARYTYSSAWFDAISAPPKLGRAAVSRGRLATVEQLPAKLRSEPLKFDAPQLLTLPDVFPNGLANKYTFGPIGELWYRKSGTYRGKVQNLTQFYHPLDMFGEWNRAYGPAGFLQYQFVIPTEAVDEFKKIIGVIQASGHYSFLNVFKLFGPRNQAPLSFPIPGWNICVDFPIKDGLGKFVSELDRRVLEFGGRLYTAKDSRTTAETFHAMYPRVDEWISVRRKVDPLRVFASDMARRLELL

Row | Structure (SMILES) | CLND Solubility [1] [µM] | MIC Mtb-H37Rv [2] | MIC [2] [µM] | kinact/Ki [3] [M⁻¹ s⁻¹] | MIC [4] [µM] | MIC M. vaccae 10670 [4] | dependence of kobs on inhibitor concentration [3] | other results
1 | O=c1nc(N2CCCCC2)sc2c([N+](=O)[O-])cc(C(F)(F)F)cc12 [C00002] | 370 | 1.2 µg/mL (≈ 3.34 µM) | 3.3 (≈ 1.19 µg/mL) | 39 ± 2 | 1.1 (≈ 0.395 µg/mL) | 0.4 µg/mL (≈ 1.11 µM) |  | 
2 | O=c1nc(N2CCOCC2)sc2c([N+](=O)[O-])cc(C(F)(F)F)cc12 [C00003] | ≥450 | 2.1 µg/mL (≈ 5.81 µM) | 5.9 (≈ 2.13 µg/mL) | 17 ± 2 | 8.6 (≈ 3.11 µg/mL) | 3.1 µg/mL (≈ 8.58 µM) |  | 
3 | O=c1nc(N2CCCCC2)oc2c([N+](=O)[O-])cc(C(F)(F)F)cc12 [C00006] | ≥510 | 5.3 µg/mL (≈ 15.4 µM) | 16 (≈ 5.49 µg/mL) | 5.6 ± 0.1 | 4.6 (≈ 1.58 µg/mL) | 1.6 µg/mL (≈ 4.66 µM) |  | 
4 | O=c1nc(N2CCOCC2)oc2c([N+](=O)[O-])cc(C(F)(F)F)cc12 [C00007] | ≥510 | 1.4 µg/mL (≈ 4.06 µM) | 3.9 (≈ 1.35 µg/mL) | 4.2 ± 0.1 | 18 (≈ 6.21 µg/mL) | 6.2 µg/mL (≈ 18 µM) |  | 
5 | C[C@H]1COC2(CCN(c3nc(=O)c4cc(C(F)(F)F)cc([N+](=O)[O-])c4s3)CC2)O1 [C00009] | 32 | 0.001 µg/mL (≈ 0.00232 µM) | 0.0023 (≈ 0.000992 µg/mL) | 720 ± 20 | 0.001 (≈ 0.000431 µg/mL) | 0.0004 µg/mL (≈ 0.000927 µM) |  | 
6 | O=c1nc(N2CCN(CC3CCCCC3)CC2)sc2c([N+](=O)[O-])cc(C(F)(F)F)cc12 [C00010] | 32 | 0.00019 µg/mL (≈ 0.000416 µM) | 0.00042 (≈ 0.000192 µg/mL) |  |  |  |  | 
7 | O=c1nc(N2CCN(CC3CCCCC3)CC2)oc2c([N+](=O)[O-])cc(C(F)(F)F)cc12 [C00011] | 12 | 0.14 µg/mL (≈ 0.318 µM) | 0.31 (≈ 0.137 µg/mL) | 300 ± 40 | < 0.11 | < 0.05 µg/mL |  | 
8 | O=Nc1cc(C(F)(F)F)cc2c(=O)nc(N3CCCCC3)sc12 [C00012] | 250 |  |  |  | 73 (≈ 25.1 µg/mL) | 25 µg/mL (≈ 72.8 µM) |  | Inhibition of Mtb-H37Rv (MIC) ([2]; at 80 μM): 82% Inhibition at 80 μM
9 | O=c1nc(N2CCCCC2)sc2c(NO)cc(C(F)(F)F)cc12 [C00013] | 10 |  | >80 |  | 18 (≈ 6.22 µg/mL) | 6.2 µg/mL (≈ 18 µM) |  | 
10 | C[C@H]1COC2(CCN(c3nc(=O)c4cc(C(F)(F)F)cc(N=O)c4s3)CC2)O1 [C00014] | 210 |  |  | 39 ± 1 | 0.06 (≈ 0.0249 µg/mL) | 0.03 µg/mL (≈ 0.0722 µM) |  | Inhibition of Mtb-H37Rv (MIC) ([2]; at 0.16 μM): 67% Inhibition at 0.16 μM
11 | O=Nc1cc(C(F)(F)F)cc2c(=O)nc(N3CCCCC3)sc12 [Compound 1, 8-Nitroso-2-(piperidin-1-yl)-6-(trifluoromethyl)-4H-1,3-benzothiazin-4-one] |  |  |  |  |  |  |  | mass increase of Mtb-DprE1 (covalent adduct) [5]: 343 Da; IC50 [3, 8]: 3000 nM; IC50 [3, 9]: 5000 nM
12 | O=c1nc(N2CCCCC2)sc2c(NO)cc(C(F)(F)F)cc12 [Compound 2] |  |  |  |  |  |  |  | mass increase of Mtb-DprE1 species (covalent adduct) ([5]; 10 µM Mtb-DprE1, 20 µM compound, absence of FPR and resazurin): 340–343 Da; time for covalent modification of the enzyme to reach completion ([5]; 20 μM compound, 10 µM Mtb-DprE1, no FPR): approximately one hour; extent of modification of Mtb-DprE1 ([5]; 30 minutes after incubation): partial modification; extent of modification of Mtb-DprE1 ([5]; 60 minutes after incubation): complete modification; mass increase of Mtb-DprE1 (covalent adduct) [5]: 343 Da; MIC [2, 10]: > 80 µM; IC50 [3, 8]: 800 nM; IC50 [3, 9]: 3500 nM; MIC ([4]; Mycolicibacterium vaccae, 10670): 18.1 µM (≈ 6.25 µg/mL)
13 | O=c1nc(N2CCOCC2)oc2c([N+](=O)[O-])cc(C(F)(F)F)cc12 [Compound 3, 2-(morpholin-4-yl)-8-nitro-6-(trifluoromethyl)-4H-1,3-benzoxazin-4-one] |  |  |  |  |  |  | linear dependence | fold lower kinact/Ki of BOZ than the BTZ counterpart [3]: 4 fold
14 | O=c1nc(N2CCCCC2)oc2c([N+](=O)[O-])cc(C(F)(F)F)cc12 [Compound 4, 8-nitro-2-(piperidin-1-yl)-6-(trifluoromethyl)-4H-1,3-benzoxazin-4-one] |  |  |  |  |  |  | linear dependence | fold lower kinact/Ki of BOZ than the BTZ counterpart [3]: 7 fold
15 | CC1CCCC(C)N1c1nc(=O)c2cc(C(F)(F)F)cc([N+](=O)[O-])c2o1 (stereo not shown) [Compound 5, 2-(2,6-Dimethylpiperidin-1-yl)-8-nitro-6-(trifluoromethyl)-4H-1,3-benzoxazin-4-one] |  |  |  |  |  |  | linear dependence | fold higher Mtb MIC of BOZ relative to BTZ counterpart [2]: 8 fold; fold lower kinact/Ki of BOZ than the BTZ counterpart [3]: 31 fold
16 | O=c1nc(N2CCOCC2)sc2c([N+](=O)[O-])cc(C(F)(F)F)cc12 [Compound 6, 2-(morpholin-4-yl)-8-nitro-6-(trifluoromethyl)-4H-1,3-benzothiazin-4-one] |  |  |  |  |  |  | hyperbolic dependence | 
17 | O=c1nc(N2CCCCC2)sc2c([N+](=O)[O-])cc(C(F)(F)F)cc12 [Compound 7, 8-Nitro-2-(piperidin-1-yl)-6-(trifluoromethyl)-4H-1,3-benzothiazin-4-one] |  | low micromolar |  |  |  | low micromolar | linear dependence | 
18 | CC1COC2(CCN(c3nc(=O)c4cc(C(F)(F)F)cc(N=O)c4s3)CC2)O1 (stereo not shown) [Compound 8, 2-{2-Methyl-1,4-dioxa-8-azaspiro[4.5]decan-8-yl}-8-nitroso-6-(trifluoromethyl)-4H-1,3 benzothiazin-4-one] |  |  |  |  |  |  | linear dependence | 
19 | CC1CCCC(C)N1c1nc(=O)c2cc(C(F)(F)F)cc([N+](=O)[O-])c2s1 (stereo not shown) [Compound 9, 2-(2,6-Dimethylpiperidin-1-yl)-8-nitro-6-(trifluoromethyl)-4H-1,3-benzothiazin-4-one] |  |  |  |  |  |  | linear dependence | fold increase in kinact/Ki as compared to 7 [3]: 6 fold
20 | O=c1nc(N2CCN(CC3CCCCC3)CC2)oc2c([N+](=O)[O-])cc(C(F)(F)F)cc12 [Compound 10, 2-[4-(cyclohexylmethyl)piperazin-1-yl]-8-nitro-6-(trifluoromethyl)-4H-1,3-benzoxazin-4-one] |  |  |  |  |  |  | hyperbolic dependence | fold higher Mtb MIC of BOZ relative to BTZ counterpart [2]: approximately 700 fold; MIC [2, 10]: 0.3 µM (≈ 0.132 µg/mL)
21 | O=c1nc(N2CCCCC2)sc2c([N+](=O)[O-])c(Cl)c(C(F)(F)F)cc12 [Compound 11, 7-Chloro-8-nitro-2-(piperidin-1-yl)-6-(trifluoromethyl)-4H-1,3-benzothiazin-4-one] |  |  |  |  |  |  | hyperbolic dependence | mass increase of Mtb-DprE1 (covalent adduct) [5]: 378 Da; fold increase in kinact/Ki as compared to 7 [3]: 8.7 fold
22 | C[C@H]1COC2(CCN(c3nc(=O)c4cc(C(F)(F)F)cc([N+](=O)[O-])c4s3)CC2)O1 [Compound 12, reference compound] |  |  |  |  |  |  | linear dependence | fold by which reported M. smegmatis and M. tuberculosis MIC values are lower than M. smegmatis DprE1 IC50 [6]: approximately 1000 fold; change in the mass spectrum of Mtb-DprE1 ([5]; control experiment in the absence of substrate): no change was observed; IC50 [7]: 4500 nM; IC50 ([3]; after 10 min of reaction time, read-out: enzymatic DprE1 IC50): ~1500 nM; IC50 ([3]; after 100 min of reaction time, read-out: enzymatic DprE1 IC50): ~120 nM; IC50 ([3]; equal to half the concentration of enzyme in the assay (150 nM), read-out: limiting IC50 value in theory had the assay been monitored longer): 75 nM
